# Ends that are not written are not given here.
# System: Human dermal fibroblasts
# Test: SIRCOL collagen assay: soluble collagen released by dermal fibroblasts incubated with peptides
# Type: cell-based
# Conditions: for Collagen (μg) / Collagen: * = may not be significant, detection limit 2.5 μg; for Increase in collagen release at 48 h v. 24 h / Decrease in collagen release at 48 h v. 24 h / Significant release of collagen at 24 h and 48 h: check mark = yes; for Significant release of collagen at 24 h and 48 h: 25 μg/mL considered significant
# Procedure: Several sequences identified in Examples 1 and 2 were synthesized using standard peptide chemistry and assayed for the stimulation of collagen from dermal fibroblasts. The synthesized peptides were amidated at the C-terminus, which rendered the tetrapeptides less susceptible to protease degradation and increased their solubility compared to the free acid forms. Human dermal fibroblasts were incubated in 96-well plates at 37° C. and 5% CO2 for 24 and 48 hours in 150 μL complete cell culture media (Cascade Biologics, Portland, Oreg.; Cat. No. M-106-500), supplemented with Low Serum Growth Supplement (Cascade Biologics, Portland, Oreg.; Cat. No. […] Each well was seeded with 10,000 cells. Following the incubation, 100-μL medium samples were recovered from each well and assayed for collagen production
# The assays were performed by Tebu-bio Laboratories (France) using the SIRCOL™ Collagen Assay Kit (Biocolor Assays, UK) following the manufacturer's protocol. The SIRCOL™ Collagen Assay is a quantitative dye-binding method designed for the analysis of soluble collagens released into culture medium by mammalian cells during in vitro culture. The collagen of the tested samples binds to the anionic SIRCOL™ dye. The collagen-dye complexes precipitate out of solution and are pelleted by centrifugation. The recovered collagen-dye pellet was dissolved in an alkaline solution prior to absorbance measurements. Duplicate measurements were taken at the 24 and 48 hour times from two separate samples. The four measurements for each sample were averaged. The absorbance of reagent blanks, collagen standards, and samples were measured at 560 nm. The reagent blank absorbance was subtracted from the absorbance from each sample at 24 and 48 hours.
# Two separate data sets were used to generate two collagen standard calibration curves. The first calibration curve was generated for purposes of calculating the quantity of collagen in samples H6 (combination of SEQ ID NOs:1-4), […] (SEQ ID NOs:1-8, respectively) and H15 (combination of SEQ ID NOs:5-8). The second calibration curve was generated for calculating the quantity of collagen in samples H16 (SEQ ID NO:9), H21-23 (SEQ ID NOs:10-12, respectively), H25-26 (SEQ ID NOs:13-14, respectively), or H29-30 (SEQ ID NOs:15-16, respectively), H32 (SEQ ID NO:17), H33 (combination of SEQ ID NOs:9-12), H34 (combination of SEQ ID NOs:11-14), H35 (combination of SEQ ID NOs:13-16), H36 (combination of SEQ ID NOs:1, 6, 5, 8), H37 (SEQ ID NO: 17) and H38 (SEQ ID NO:8) from the absorbance measurements was created by plotting the Abs560nm of the known collagen standards versus the respective concentrations of the collagen standards (in micrograms) each time a series of assays were performed. With respect to each data set, the same calibration curve was used for samples taken at the 24 and 48 hour times (Tables 2A and 2B). Accordingly, different standard curves were prepared immediately prior to performing each series of assays.
# A linear regression was performed from plotting the Abs560nm values versus concentrations of the respective collagen standards using MICROSOFT EXCEL™. […] As the results were identical, only the 24-hour time period was used for the second series calibration curves. The formula of the line obtained on assay date 1 and assay date 2 of the second series of samples was y=0.0178x and y=0.0162x, respectively. The peptide LL-37 (SEQ ID NO:18) was used as a positive control as it has been widely reported to have an impact upon wound healing in man (Heilborn et al., The Cathelicidin Anti-Microbial Peptide LL-37 Is Involved In The Re-Epithelialization Of Human Skin Wounds And Is Lacking In Chronic Ulcer Epithelium, J. Invest. Dermato. 120:379-89 (2003). The assay detection limit defined by the manufacturer is 2.5 μg. […]
# [1] = 24 hours, peptide 50 μg/mL, 100 μL medium sample
# [2] = 48 hours, peptide 50 μg/mL, 100 μL medium sample
# [3] = 24 hours, peptide 50 μg/mL, second series
# [4] = 48 hours, peptide 50 μg/mL, second series
# [5] = peptide 0.3 μg/mL (per Table 5)
# [6] = 24 hours, peptide 0.3 μg/mL, second series
# [7] = 48 hours, peptide 0.3 μg/mL, second series
Substance,Released collagen (μg/mL) 24 h (peptide 50 μg/mL (per Table 5)) [µg/mL],"Average (A560 nm) (24 hours, peptide 50 μg/mL)","Average minus blank (A560 nm) (24 hours, peptide 50 μg/mL)",Collagen produced (μg/mL) 24 hrs ([Peptide] 50 μg/mL) [µg/mL],Released collagen (μg/mL) 48 h (peptide 50 μg/mL (per Table 5)) [µg/mL],"Average (A560 nm) (48 hours, peptide 50 μg/mL)","Average minus blank (A560 nm) (48 hours, peptide 50 μg/mL)",Collagen [2] [µg],Collagen produced (μg/mL) 48 hrs ([Peptide] 50 μg/mL) [µg/mL],Average (A560 nm) [3],Average minus blank (A560 nm) [3],Average (A560 nm) [4],Average minus blank (A560 nm) [4],Collagen (μg) [4],Decrease in collagen release at 48 h v. 24 h (peptide 50 μg/mL),other results
GAGP (Synthetic Peptide H12),2,0.08,0.00,2,37,0.17,0.05,3.7,37,,,,,,,Collagen (μg) [1]: 0.2* μg; collagen production at 48 hours (in words) (48 hours): good results; Increase in collagen release at 48 h v. 24 h (peptide 50 μg/mL): ✓
PMGP (PMGP-NH2) [H25],13,,,13,7,,,,7,0.10,0.02,0.07,0.01,0.7* μg,✓,Collagen (μg) [3]: 1.3* μg
"KTTKS [H32, reference compound]",,,,,12,,,,12,0.07,−0.01,0.08,0.02,1.2* μg,,Released collagen (μg/mL) 24 h [5]: 11 µg/mL; Average (A560 nm) [6]: 0.10; Average minus blank (A560 nm) [6]: 0.02; Collagen (μg) [6]: 1.1* μg; Collagen (μg) [3]: −0.5* μg; Collagen produced (μg/mL) 24 hrs ([Peptide] 0.3 μg/mL): 11 µg/mL; Released collagen (μg/mL) 48 h [5]: 22 µg/mL; Average (A560 nm) [7]: 0.10; Average minus blank (A560 nm) [7]: 0.04; Collagen (μg) [7]: 2.2* μg; Collagen produced (μg/mL) 48 hrs ([Peptide] 0.3 μg/mL): 22 µg/mL; Increase in collagen release at 48 h v. 24 h (peptide 0.3 μg/mL): ✓
PGQP (PGQP-NH2) [H22],33,,,33,21,,,,21,0.14,0.06,0.09,0.03,2.1* μg,✓,Collagen [3]: 3.3 µg
PEGP (PEGP-NH2) [H7],0,0.08,0.00,0,54,0.19,0.07,5.4,54,,,,,,,Collagen (μg) [1]: 0.0* μg; Increase in collagen release at 48 h v. 24 h (peptide 50 μg/mL): ✓
"GEKG (Synthetic Peptide H14) [H14 = tested at 50 μg/mL, H38 = same peptide tested at 0.3 μg/mL]",30,0.12,0.04,30,26,0.15,0.03,2.6,26,,,,,,,time for which collagen production was substantially maintained: at least 48 hours; collagen stimulation at the lower concentration (in words) (0.3 μg/mL versus 50 μg/mL): not diminished; collagen production compared to KTTKS (24 and 48 hours): stimulated more collagen production than the KTTKS; Released collagen (μg/mL) 24 h [5]: 29 µg/mL; amount of collagen induced compared to LL37 (24 hours): about the same amount of collagen as LL37; Average (A560 nm) [6]: 0.13; Average minus blank (A560 nm) [6]: 0.05; Collagen [6]: 2.9 µg; Collagen [1]: 3.0 µg; Collagen produced (μg/mL) 24 hrs ([Peptide] 0.3 μg/mL): 29 µg/mL; Released collagen (μg/mL) 48 h [5]: 28 µg/mL; Average (A560 nm) [7]: 0.11; Average minus blank (A560 nm) [7]: 0.05; Collagen [7]: 2.8 µg; Collagen produced (μg/mL) 48 hrs ([Peptide] 0.3 μg/mL): 28 µg/mL; Significant release of collagen at 24 h and 48 h (peptide 0.3 μg/mL): ✓; Significant release of collagen at 24 h and 48 h (peptide 50 μg/mL): ✓; maximal stimulating concentration (collagen production): ≤ 0.3 µg/mL
PGPR (Synthetic Peptide H10),34,0.12,0.04,34,0,0.11,0.00,,0,,,,,,✓,Collagen [1]: 3.4 µg; Collagen (μg) [2]: 0.0* μg
PKGP (PKGP-NH2) [H21],25,,,25,29,,,,29,0.12,0.04,0.11,0.05,,,Collagen [3]: 2.5 µg; Collagen [4]: 2.9 µg; Significant release of collagen at 24 h and 48 h (peptide 50 μg/mL): ✓
